Measured values reported in ChEMBL document CHEMBL5725495, “Heterocyclylamines as PI3K inhibitors” (2017).

test: A2 PI3Kdelta Scintillation Proximity Assay: Lipid kinase substrate, phosphoinositol-4,5-bisphosphate (PIP2), are purchased from Echelon Biosciences (Salt Lake City, Utah). PI3K isoforms α, β, δ and γ are purchased from Millipore (Bedford, Mass.). ATP, MgCl2, DTT, EDTA, MOPS and CHAPS are purchased from Sigma-Aldrich (St. Louis, Mo.). The kinase reaction are conducted in clear-bottom 96-well plate from Thermo Fisher Scientific in a final volume of 24 μL. Inhibitors are first diluted serially in DMSO and added to the plate wells before the addition of other reaction components. The final concentration of DMSO in the assay is 0.5%. The PI3K assays are carried out at room temperature in 20 mM MOPS, pH 6.7, 10 mM MgCl2, 5 mM DTT and CHAPS 0.03%. The reaction mixture is prepared containing 50 μM PIP2, kinase and varying concentration of inhibitors. Reactions are initiated by the addition of ATP containing 2.2 μCi [γ-33P]ATP to a final concentration of 1000 μM. The final concentration of PI3K isoforms α, β, δ and γ in the assay were 1.3, 9.4, 2.9 and 10.8 nM, respectively. Reactions are incubated for 180 minutes and terminated by the addition of 100 μL of 1 M potassium phosphate pH 8.0, 30 mM EDTA quench buffer. A 100 μL aliquot of the reaction solution are then transferred to 96-well Millipore MultiScreen IP 0.45 μm PVDF filter plate (The filter plate is prewetted with 200 μL 100% ethanol, distilled water, and 1 M potassium phosphate pH 8.0, respectively). The filter plate is aspirated on a Millipore Manifold under vacuum and washed with 18×200 μL wash buffer containing 1 M potassium phosphate pH 8.0 and 1 mM ATP. After drying by aspiration and blotting, the plate is air dried in an incubator at 37° C. overnight. Packard TopCount adapter (Millipore) is then attached to the plate followed with addition of 120 μL Microscint 20 scintillation cocktail (Perkin Elmer) in each well. After the plate sealing, the radioactivity of the product is determined by scintillation counting on Topcount (Perkin-Elmer). IC50 determination is performed by fitting the curve of percent control activity versus the log of the inhibitor concentration using the GraphPad Prism 3.0 software.; set-up: species or system Homo sapiens

Compound | IC50 [nM]
COc1c(C(C)n2nc(C)c3c(N)ncnc32)cc(Cl)c(C)c1C1CN(C[C@H](C)O)C1 (stereo partly drawn) | < 10
COc1c(C(C)n2nc(C(F)F)c3c(N)ncnc32)cc(C#N)c(C)c1C1CN(C[C@H](C)O)C1 (stereo partly drawn) | < 10
COc1c(C(C)n2nc(C)c3c(N)ncnc32)cc(Cl)c(C#N)c1C1CN(CCO)C1 (stereo not drawn) | < 10
COc1c([C@@H](C)n2nc(C(F)F)c3c(N)ncnc32)cc(Cl)c(F)c1C1CN(C)C1 | < 10
CCOc1c([C@H](C)n2nc(C)c3c(N)ncnc32)cc(Cl)c(C#N)c1C1CN(C(C)CO)C1 (stereo partly drawn) | < 10
COc1c([C@@H](C)n2nc(C)c3c(N)ncnc32)cc(Cl)c(C#N)c1C1CN(C(C)CO)C1 (stereo partly drawn) | < 10
CCOc1c(C(C)n2nc(C)c3c(N)ncnc32)cc(Cl)c(F)c1C1CN(C[C@H](C)O)C1 (stereo partly drawn) | < 10
CCOc1c([C@@H](C)n2nc(C)c3c(N)ncnc32)cc(Cl)c(C#N)c1C1CN(C(C)CO)C1 (stereo partly drawn) | < 10
COc1c([C@@H](C)n2nc(C)c3c(N)ncnc32)cc(Cl)c(C#N)c1C1CN(C2CCOC2)C1 (stereo partly drawn) | < 10
COc1c(C(C)n2nc(C)c3c(N)ncnc32)cc(Cl)c(C)c1-c1ccc(C(=O)N(C)C)nc1 (stereo not drawn) | < 10
COc1c([C@@H](C)n2nc(C)c3c(N)ncnc32)cc(Cl)c(C#N)c1C1CN(CC2CCOC2)C1 (stereo partly drawn) | < 10
CCOc1c([C@H](C)n2nc(C)c3c(N)ncnc32)cc(Cl)c(C#N)c1C1CN(CCOC)C1 | < 10
COc1c([C@H](C)n2nc(C)c3c(N)ncnc32)cc(Cl)c(C#N)c1C1CN(C(C)CO)C1 (stereo partly drawn) | < 10
CCOc1c(C(C)n2nc(C)c3c(N)ncnc32)cc(Cl)c(C)c1-c1ccc(C(=O)N(C)C)nc1 (stereo not drawn) | < 10
COc1c(C(C)n2cc(C)c3c(N)ncnc32)cc(Cl)c(C#N)c1C1CN(C(C)C)C1 (stereo not drawn) | < 10
COc1c([C@H](C)n2nc(C)c3c(N)ncnc32)cc(Cl)c(C#N)c1C1CN(CC2CCOC2)C1 (stereo partly drawn) | < 10
COc1c([C@@H](C)n2nc(C(F)F)c3c(N)ncnc32)cc(Cl)c(F)c1C1CN(CCO)C1 (single isomer, unassigned) | < 10
CCOc1c([C@@H](C)n2nc(C)c3c(N)ncnc32)cc(Cl)c(F)c1C1CN(C(C)C)C1 (single isomer, unassigned) | < 10
